Test results as given in US20120165331A1, “Di/tri-aza-spiro-C9-C11alkanes” (priority 2010, published 2012).

Key:
human orexin 1 receptor [1] = target: T1, human orexin 1 receptor (Homo sapiens, UniProt O43613); assay: Radioligand binding assay ([125I]orexin A competition), human orexin 1 receptor; settings: radioligand [125I]orexin A instead of [3H]-SB649868; read-out: Binding hOx1R Kd
T1 construct: expressed in transfected cells
T1 sequence (O43613 1-425): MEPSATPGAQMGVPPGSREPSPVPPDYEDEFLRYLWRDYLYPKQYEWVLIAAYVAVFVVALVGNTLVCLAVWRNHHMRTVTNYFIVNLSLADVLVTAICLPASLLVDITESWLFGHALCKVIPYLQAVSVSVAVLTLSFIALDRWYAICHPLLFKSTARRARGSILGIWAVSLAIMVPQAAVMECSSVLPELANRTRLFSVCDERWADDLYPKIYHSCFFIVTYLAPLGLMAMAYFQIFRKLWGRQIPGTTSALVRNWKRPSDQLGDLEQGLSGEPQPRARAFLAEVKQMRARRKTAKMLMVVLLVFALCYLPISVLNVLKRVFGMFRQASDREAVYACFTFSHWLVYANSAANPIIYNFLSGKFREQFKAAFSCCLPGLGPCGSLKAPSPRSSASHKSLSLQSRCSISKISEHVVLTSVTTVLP

human orexin 2 receptor [2] = target: T2, human orexin 2 receptor (Homo sapiens, UniProt O43614); assay: Radioligand binding assay ([125I]orexin A competition), human orexin 2 receptor; settings: radioligand [125I]orexin A instead of [3H]-SB649868; read-out: Binding hOx2R Kd
T2 construct: expressed in transfected cells
T2 sequence (O43614 1-444): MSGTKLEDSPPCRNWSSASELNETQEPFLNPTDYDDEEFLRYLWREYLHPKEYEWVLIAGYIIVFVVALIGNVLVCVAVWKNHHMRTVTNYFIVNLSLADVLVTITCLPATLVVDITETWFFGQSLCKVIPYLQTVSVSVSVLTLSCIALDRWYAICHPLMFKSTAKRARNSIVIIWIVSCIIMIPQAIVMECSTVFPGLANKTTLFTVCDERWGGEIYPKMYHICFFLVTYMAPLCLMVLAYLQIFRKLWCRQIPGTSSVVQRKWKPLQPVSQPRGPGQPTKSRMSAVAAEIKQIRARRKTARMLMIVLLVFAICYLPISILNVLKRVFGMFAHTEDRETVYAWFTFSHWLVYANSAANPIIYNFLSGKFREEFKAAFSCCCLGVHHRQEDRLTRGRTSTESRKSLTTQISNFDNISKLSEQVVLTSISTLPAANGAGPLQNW

human orexin 2 receptor [3] = target: T2, human orexin 2 receptor; assay: Calcium accumulation in cells (FLIPR), antagonism of orexin A, human orexin 2 receptor; type: cell-based; settings: calcium accumulation, antagonism of orexin A, Cheng-Prusoff corrected; read-out: FLIPR hOx2R Ki
human orexin 1 receptor [4] = target: T1, human orexin 1 receptor; assay: Calcium accumulation in cells (FLIPR), antagonism of orexin A, human orexin 1 receptor; type: cell-based; settings: for Ki: calcium accumulation, antagonism of orexin A, Cheng-Prusoff corrected, read-out: FLIPR hOx1R Ki; for inhibition at 10 µM: measured at a concentration of 10 μM of compound, read-out: FLIPR hOx1R % inhibition
human orexin 2 receptor [5] = target: T2, human orexin 2 receptor; assay: Radioligand binding assay ([3H]-SB649868 competition), human orexin 2 receptor; settings: radioligand [3H]-SB649868; read-out: Binding hOx2R Kd
How it was run: (§1)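 Competition binding against roughly 1 nM [3H]-SB649868, run in triplicate for 1 h at room temperature on CHO or HEK membranes bearing human receptor (10 mM HEPES pH 7.5, 0.5% BSA, 5 mM MgCl2, 1 mM CaCl2, 0.05% tween). Bound radioactivity after vacuum filtration; almorexant 10 μM for non-specific binding; expressed as Kd.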

human orexin 1 receptor [6] = target: T1, human orexin 1 receptor; assay: Radioligand binding assay ([3H]-SB649868 competition), human orexin 1 receptor; settings: radioligand [3H]-SB649868; read-out: Binding hOx1R Kd
How it was run: as §1

Q: Which results are given for `O=C1N(Cc2cccc3ccccc23)CCC12CCN(c1nc3ccccc3[nH]1)CC2` [Example 3.7, 8-(1H-Benzo[d]imidazol-2-yl)-2-(naphthalen-1-ylmethyl)-2,8-diazaspiro[4.5]decan-1-one]?
A: Kd (human orexin 1 receptor [1]): > 10000 nM; Kd (human orexin 2 receptor [2]): 1920 nM

Q: What does the source list for `O=C1N(Cc2cccc3ccccc23)CCC12CCN(c1cnc3ccccc3n1)CC2` [Example 3.11, 2-(Naphthalen-1-ylmethyl)-8-(quinoxalin-2-yl)-2,8-diazaspiro[4.5]decan-1-one]?
A: Ki (human orexin 2 receptor [3]): 195 nM; Kd (human orexin 1 receptor [1]): 6360 nM; Kd (human orexin 2 receptor [2]): 414 nM; Ki (human orexin 1 receptor [4]): 1070 nM

Q: Which Ki (human orexin 2 receptor [3]) does the source give for `COc1cccc(-c2n[nH]nc2CN2CCCC3(CCN(c4nccc(OC)n4)C3)C2=O)c1` (stereo not shown) [Example 7.6, 7-((5-(3-Methoxyphenyl)-2H-1,2,3-triazol-4-yl)methyl)-2-(4-methoxypyrimidin-2-yl)-2,7-diazaspiro[4.5]decan-6-one] here?
A: 65 nM

Q: And the Kd (human orexin 2 receptor [5])?
A: 170 nM

Q: And the Ki (human orexin 1 receptor [4])?
A: 189 nM

Q: What about the Kd (human orexin 1 receptor [6]) of the same molecule?
A: 187 nM

Q: For `Cc1ccnc(N2CCC3(CCCN(Cc4c[nH]c5ccccc45)C3=O)C2)n1` (stereo not shown) [Example 7.11, 7-((1H-indol-3-yl)methyl)-2-(4-methylpyrimidin-2-yl)-2,7-diazaspiro[4.5]decan-6-one], which Ki (human orexin 2 receptor [3]) is on record?
A: 38 nM

Q: What about the Kd (human orexin 2 receptor [5]) of the same molecule?
A: 73 nM

Q: And the Ki (human orexin 1 receptor [4])?
A: 304 nM

Q: What about the Kd (human orexin 1 receptor [6]) of the same molecule?
A: 89 nM

Q: What does the source list for `COc1cc(C)nc(N2CCC3(CCCN(Cc4n[nH]c5ccccc45)C3=O)C2)n1` (stereo not shown) [Example 7.12, 7-((1H-indazol-3-yl)methyl)-2-(4-methoxy-6-methylpyrimidin-2-yl)-2,7-diazaspiro[4.5]decan-6-one]?
A: Ki (human orexin 2 receptor [3]): 48 nM; Kd (human orexin 2 receptor [5]): 138 nM; Ki (human orexin 1 receptor [4]): 309 nM; Kd (human orexin 1 receptor [6]): 173 nM

Q: For `COc1cc(C)nc(N2CCC3(CCCN(Cc4ccccc4-c4nc(C)no4)C3=O)C2)n1` (stereo not shown) [Example 7.14, 2-(4-methoxy-6-methylpyrimidin-2-yl)-7-(2-(3-methyl-1,2,4-oxadiazol-5-yl)benzyl)-2,7-diazaspiro[4.5]decan-6-one], which Ki (human orexin 2 receptor [3]) is on record?
A: 92 nM

Q: What about the Kd (human orexin 2 receptor [5]) of the same molecule?
A: 210 nM

Q: And the Ki (human orexin 1 receptor [4])?
A: 174 nM

Q: And the Kd (human orexin 1 receptor [6])?
A: 171 nM

Q: Which results are given for `O=C1N(Cc2c[nH]c3ccccc23)CCCC12CCN(c1nc3ccccc3[nH]1)C2` (stereo not shown) [Example 7.15, 7-((1H-indol-3-yl)methyl)-2-(1H-benzo[d]imidazol-2-yl)-2,7-diazaspiro[4.5]decan-6-one]?
A: Ki (human orexin 2 receptor [3]): 68 nM; Kd (human orexin 2 receptor [5]): 28 nM; Ki (human orexin 1 receptor [4]): 474 nM; Kd (human orexin 1 receptor [6]): 43 nM

Q: How did the Ki (human orexin 2 receptor [3]) turn out when `O=C1CCC2(CCN(c3cnc4ccccc4n3)CC2)N1Cc1cccc2[nH]ccc12` [Example 8.1] was run?
A: 2.1 nM

Q: What about the Kd (human orexin 2 receptor [5]) of the same molecule?
A: 32 nM

Q: What about the Ki (human orexin 1 receptor [4]) of the same molecule?
A: 78 nM

Q: And the Kd (human orexin 1 receptor [6])?
A: 148 nM

Q: For `Cc1cc(C)nc(N2CCC3(CCC(=O)N3Cc3cccc4[nH]ccc34)CC2)n1` [Example 8.3, 1-((1H-Indol-4-yl)methyl)-8-(4,6-dimethylpyrimidin-2-yl)-1,8-diazaspiro[4.5]decan-2-one], which Ki (human orexin 2 receptor [3]) is on record?
A: 2.3 nM

Q: And the Kd (human orexin 2 receptor [5])?
A: 30 nM

Q: And the Ki (human orexin 1 receptor [4])?
A: 1210 nM

Q: And the Kd (human orexin 1 receptor [6])?
A: 2380 nM

Q: Which results are given for `N#Cc1ccnc(N2CCC3(CCC(=O)N3Cc3cccc4[nH]ccc34)CC2)c1` [Example 8.4, 2-(1-((1H-Indol-4-yl)methyl)-2-oxo-1,8-diazaspiro[4.5]decan-8-yl)isonicotinonitrile]?
A: Ki (human orexin 2 receptor [3]): 45 nM; Kd (human orexin 2 receptor [5]): 348 nM; inhibition at 10 µM (human orexin 1 receptor [4]): 36%; Kd (human orexin 1 receptor [6]): > 10000 nM

Q: Which Ki (human orexin 2 receptor [3]) does the source give for `Cc1ccc(C)c(CN2C(=O)CCC23CCN(c2cnc4ccccc4n2)CC3)c1` [Example 8.5, 1-(2,5-Dimethylbenzyl)-8-(quinoxalin-2-yl)-1,8-diazaspiro[4.5]decan-2-one] here?
A: 7.6 nM

Q: And the Kd (human orexin 2 receptor [5])?
A: 77 nM

Q: And the Ki (human orexin 1 receptor [4])?
A: 100 nM

Q: What about the Kd (human orexin 1 receptor [6]) of the same molecule?
A: 81 nM

Q: Which results are given for `Cc1ccc(C)c(CN2C(=O)CCC23CCN(c2nc(C)cc(C)n2)CC3)c1` [Example 8.6, 1-(2,5-Dimethylbenzyl)-8-(4,6-dimethylpyrimidin-2-yl)-1,8-diazaspiro[4.5]decan-2-one]?
A: Ki (human orexin 2 receptor [3]): 10 nM; Kd (human orexin 2 receptor [5]): 153 nM; Ki (human orexin 1 receptor [4]): 2780 nM; Kd (human orexin 1 receptor [6]): 4920 nM

Q: `Cc1ccc(C)c(CN2C(=O)COCC23CCN(c2cnc4ccccc4n2)CC3)c1` [Example 8.7, 1-(2,5-Dimethylbenzyl)-9-(quinoxalin-2-yl)-4-oxa-1,9-diazaspiro[5.5]undecan-2-one] was tested. Which Ki (human orexin 2 receptor [3]) did it give?
A: 24 nM

Q: And the Kd (human orexin 2 receptor [5])?
A: 102 nM

Q: And the Ki (human orexin 1 receptor [4])?
A: 274 nM

Q: And the Kd (human orexin 1 receptor [6])?
A: 431 nM

Q: With `O=C1COCC2(CCN(c3cnc4ccccc4n3)CC2)N1Cc1cccc2[nH]ccc12` [Example 8.9, 1-((1H-Indol-4-yl)methyl)-9-(quinoxalin-2-yl)-4-oxa-1,9-diazaspiro[5.5]undecan-2-one] as the molecule, how does the Ki (human orexin 2 receptor [3]) read?
A: 29 nM

Q: What about the Kd (human orexin 2 receptor [5]) of the same molecule?
A: 136 nM

Q: And the Ki (human orexin 1 receptor [4])?
A: 320 nM

Q: And the Kd (human orexin 1 receptor [6])?
A: 429 nM

Q: Which Ki (human orexin 2 receptor [3]) does the source give for `O=C1COCC2(CCN(c3cnc4ccccc4n3)CC2)N1Cc1cccc(-c2ccccn2)c1` [Example 8.11, 1-(3-(Pyridin-2-yl)benzyl)-9-(quinoxalin-2-yl)-4-oxa-1,9-diazaspiro[5.5]undecan-2-one] here?
A: 783 nM

Q: What about the Kd (human orexin 2 receptor [5]) of the same molecule?
A: 4540 nM

Q: What about the Ki (human orexin 1 receptor [4]) of the same molecule?
A: 53 nM

Q: What about the Kd (human orexin 1 receptor [6]) of the same molecule?
A: 53 nM

Q: `Cc1ccc(C)c(CN2C(=O)COCC23CCN(c2nc(C)cc(C)n2)CC3)c1` [Example 8.15, 1-(2,5-Dimethylbenzyl)-9-(4,6-dimethylpyrimidin-2-yl)-4-oxa-1,9-diazaspiro[5.5]undecan-2-one] was tested. Which Ki (human orexin 2 receptor [3]) did it give?
A: 28 nM

Q: What about the Kd (human orexin 2 receptor [5]) of the same molecule?
A: 165 nM

Q: What about the inhibition at 10 µM (human orexin 1 receptor [4]) of the same molecule?
A: 15%

Q: And the Kd (human orexin 1 receptor [6])?
A: > 10000 nM

Q: For `Cc1ccc(C)c(CN2C(=O)OCC23CCN(c2cnc4ccccc4n2)CC3)c1` [Example 8.20, 1-(2,5-Dimethylbenzyl)-8-(quinoxalin-2-yl)-3-oxa-1,8-diazaspiro[4.5]decan-2-one], which Ki (human orexin 2 receptor [3]) is on record?
A: 14 nM

Q: What about the Kd (human orexin 2 receptor [5]) of the same molecule?
A: 152 nM

Q: What about the Ki (human orexin 1 receptor [4]) of the same molecule?
A: 141 nM

Q: And the Kd (human orexin 1 receptor [6])?
A: 171 nM

Q: For `O=C1OCC2(CCN(c3cnc4ccccc4n3)CC2)N1Cc1cccc2[nH]ccc12` [Example 8.22, 1-((1H-Indol-4-yl)methyl)-8-(quinoxalin-2-yl)-3-oxa-1,8-diazaspiro[4.5]decan-2-one], which Ki (human orexin 2 receptor [3]) is on record?
A: 38 nM

Q: And the Kd (human orexin 2 receptor [5])?
A: 290 nM

Q: And the Ki (human orexin 1 receptor [4])?
A: 645 nM

Q: And the Kd (human orexin 1 receptor [6])?
A: 986 nM
